Assay results published in US8217053B2, “Camptothecin derivatives with antitumor activity” (Indena S.p.A., priority 2006, dated 2012).
Values after ≈ are worked out from the molar mass of the structure shown.

Key:
[1] = tested on: NCI-H460 cell line (NSCL cancer); assay: Cell growth inhibition assay (cytotoxicity); format: cell-based, human; conditions: counted 72 hours after exposure, 1 or 72 hr drug exposure; for NCI-H460 IC50 (μg/mL) Cell count: H460 human large cell lung tumor cells; for IC50: Homo sapiens, NCI-H460, read-out: NCI-H460 IC50 (μg/mL) Cell count, H460 human large cell lung tumor cells
Description: The compounds of the invention were tested in a cytotoxicity assay on a wide spectrum of tumour cells. By way of example, the cytotoxicity data on the NCI-H460 cell line (NSCL cancer) concerning two compounds of formula (I) are reported, using camptothecin and the drugs Topotecan and SN-38 as references:
H460 Cells from human large cell lung tumor were cultured in RPMI-1640 medium containing 10% foetal calf serum. Cell sensitivity was determined by cell growth inhibition assay after 1 or 72 hr drug exposure. The cells in logarithmic growth were collected and seeded in duplicate in 6-wells plates. […] IC50 is defined as the concentration inhibiting by 50% cell growth compared with untreated controls growth.

[2] = biological target: T1, human recombinant enzyme (full length top1) (Homo sapiens, UniProt P11387); assay: Topoisomerase-I-dependent DNA rupture assay (DNA damage persistence); format: biochemical; conditions: 0.6 M NaCl added after 30 min incubation with 10 μM of the drug
T1 construct: the human recombinant enzyme (full length top1)
T1 sequence (P11387 1-765): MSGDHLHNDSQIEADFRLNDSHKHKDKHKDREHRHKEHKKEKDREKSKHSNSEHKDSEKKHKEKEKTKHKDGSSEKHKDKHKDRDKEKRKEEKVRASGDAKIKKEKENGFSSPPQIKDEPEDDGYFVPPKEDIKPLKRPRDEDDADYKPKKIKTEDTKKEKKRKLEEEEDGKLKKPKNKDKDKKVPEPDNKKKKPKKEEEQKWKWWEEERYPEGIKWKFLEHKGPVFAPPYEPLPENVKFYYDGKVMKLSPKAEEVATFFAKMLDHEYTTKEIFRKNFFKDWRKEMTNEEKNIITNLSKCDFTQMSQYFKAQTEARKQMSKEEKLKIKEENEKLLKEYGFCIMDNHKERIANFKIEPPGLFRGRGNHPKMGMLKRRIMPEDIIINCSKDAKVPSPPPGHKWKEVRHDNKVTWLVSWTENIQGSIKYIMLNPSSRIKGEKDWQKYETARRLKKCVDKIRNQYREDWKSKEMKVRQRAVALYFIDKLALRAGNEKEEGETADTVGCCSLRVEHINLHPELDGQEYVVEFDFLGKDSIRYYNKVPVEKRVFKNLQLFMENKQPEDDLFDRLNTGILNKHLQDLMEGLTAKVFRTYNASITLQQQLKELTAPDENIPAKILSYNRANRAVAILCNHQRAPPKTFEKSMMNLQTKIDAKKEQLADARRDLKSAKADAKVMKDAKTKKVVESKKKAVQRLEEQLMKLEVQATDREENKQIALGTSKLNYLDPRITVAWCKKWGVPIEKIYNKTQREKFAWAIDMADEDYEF

lung tumor model = assay: In vivo comparison on a lung tumor model; conditions: dose 50 mg/kg/inj.
Description: Compound thio-SN38 (IDN6156) was transformed into thio-CPT11 (thio-Irinotecan) according to procedures for the conversion of SN38 to CPT11 (Irinotecan) reported in the literature. The resulting compound thio-irinotecan was compared in vivo with close non-sulforated analogue in clinical use (CPT11) on a lung tumor model highly sensitive to the standard references.

SMILES	NCI-H460 IC50 (μg/mL) Cell count [1] [µg/mL]	Persistence of DNA damage (%) ([2]; time 0 min)	Persistence of DNA damage (%) ([2]; time 1 min)	Persistence of DNA damage (%) ([2]; time 5 min)	Persistence of DNA damage (%) ([2]; time 10 min)	IC50 [1] [µg/mL]	Max BWL % (lung tumor model) [%]	TWI % (lung tumor model) [%]	Tox/Tot (lung tumor model)	LCK (0.5 g) (lung tumor model; 0.5 g)
CC[C@@]1(O)C(=O)OCc2c1cc1n(c2=S)C(N=[N+]=[N-])c2cc3ccccc3nc2-1 (some centres unmarked) [IDN 6093]	0.72 ± 0.2									
CC[C@@]1(O)C(=O)OCc2c1cc1n(c2=O)Cc2cc3ccccc3nc2-1 [Camptothecin]		100	58	23	20					
CC[C@@]1(O)C(=O)OCc2c1cc1n(c2=S)Cc2cc3c(CN(C)C)c(O)ccc3nc2-1 [IDN 6180, Thio-Topotecan]						0.115 ± 0.021 (≈ 0.263 µM)				
CCc1c2c(nc3ccc(O)cc13)-c1cc3c(c(=S)n1C2)COC(=O)[C@]3(O)CC [IDN 6156, ThioSN-38]		100	100	80	60	0.0095 ± 0.0007 (≈ 0.0233 µM)				
CC[C@@]1(O)C(=O)OCc2c1cc1n(c2=S)Cc2cc3ccccc3nc2-1 [IDN 6070, Thio-camptothecin]		100	33	10	10	0.05 ± 0.021 (≈ 0.137 µM)				
CC[C@@]1(O)C(=O)OCc2c1cc1n(c2=S)C(N=[N+]=[N-])c2cc3ccccc3nc2-1 (some centres unmarked) [IDN 6092]	0.3 ± 0.07	100	35	18	15					
CCc1c2c(nc3ccc(O)cc13)-c1cc3c(c(=O)n1C2)COC(=O)[C@]3(O)CC [SN38, 10-hydroxy-7-ethylcamptothecin, reference compound]		100	60	33	28					
CC[C@@]1(O)C(=O)OCc2c1cc1n(c2=S)Cc2cc3cc(O)ccc3nc2-1 [IDN 6181, 10-hydroxy-Thio-Camptothecin]		100	88	50	22	0.035 ± 0.011 (≈ 0.092 µM)				
CCc1c2c(nc3ccc(OC(=O)N4CCC(N5CCCCC5)CC4)cc13)-c1cc3c(c(=O)n1C2)COC(=O)[C@]3(O)CC [CPT 11]							15	91	0/5	1.8
CC[C@@]1(O)C(=O)OCc2c1cc1n(c2=O)Cc2cc3c(CN(C)C)c(O)ccc3nc2-1 [Topotecan, reference compound]		100	65	20	10					
